Experimental data: patent US20090005407A1, “PARTICULATE (3'-CHLOROBIPHENYL-4-YL)(1-(PYRIMIDIN-2-YL)PIPERIDIN-4-YL)METHANONE AND METHODS OF ITS USE” (priority 2007, published 2009)

Assays:
water solubility = type: physicochemical
mice = conditions: administered to mice; see U.S. Ser. Nos. 11/433,057 and 11/433,626; cited from earlier work

## O=C(c1ccc(-c2cccc(Cl)c2)cc1)C1CCN(c2ncccn2)CC1 [(3′-chlorobiphenyl-4-yl)(1-(pyrimidin-2-yl)piperidin-4-yl)methanone]
Water solubility
  water solubility: poorly water soluble
mice
  effect on learning and memory: increase learning and memory
